In brackets after ≈: the same amount, converted by molar mass. Several values for one entry are separate records, joined by “and”; a condition that tells them apart may be missing. Equal values may be shown once. Read-outs that look alike come from different tables or passages of the source.
Tests used:
[1] = tested on: BAA 2109 (MDRPA clinical isolate); test: Antimicrobial susceptibility, broth microdilution MIC; assay type: cell-based, Pseudomonas aeruginosa; conditions: for MIC: Pseudomonas aeruginosa
Method: (§1) Pseudomonas aeruginosa (ATCC 9027), Drug-Resistant Pseudomonas aeruginosa from ATCC Panel MP-23 (BAA-2108, BAA-2109, BAA-2110), and Pseudomonas aeruginosa efflux knockout GKCW120 (PD6)14 provided by Zgurskaya and co-workers at the University of Oklahoma.
(§2) Antimicrobial Susceptibility Assay Procedure. Susceptibility testing was performed in biological triplicate, using the broth microdilution method as outlined by the Clinical and Laboratory Standards Institute. Briefly, minimum inhibitory concentrations (MIC) determinations were carried out in 96-well microtiter plates with 2-fold serial dilutions of the compounds from 0 […]
(§3) Briefly, to each well 1 µL of compound in DMSO, 89 µL of TSB, and 10 µL of bacterial inoculum, grown from frozen stock in 10 mL of TSB […]
(§4) for 4-6 hours, were added. […]
(§5) on a Biotek Synergy HTX Multi-mode plate reader. Data was processed by background subtracting the media absorbance and then normalizing the data to full bacterial growth with only vehicle.
(§6) MIC is defined as the lowest concentration of antibiotic or antibiotic/adjuvant combination that achieves ≥ 85% growth inhibition, which corresponds to no visible growth. […]

[2] = tested on: BAA 2108 (MDRPA clinical isolate); test: as above; assay type: cell-based, Pseudomonas aeruginosa; conditions: for MIC: Pseudomonas aeruginosa
Method: as §1, §2, §3, §4, §5, §6

[3] = tested on: BAA 2110 (MDRPA clinical isolate); test: as above; assay type: cell-based, Pseudomonas aeruginosa; conditions: for MIC: Pseudomonas aeruginosa
Method: as §1, §2, §3, §4, §5, §6

PA 9027 [4] = test: as above; assay type: cell-based; conditions: Pseudomonas aeruginosa, read-out: MIC PA 9027
Method: as §1, §2, §3, §4, §5, §6

[5] = tested on: PΔ6 (efflux knockout strain of PA); test: as above; assay type: cell-based; conditions: Pseudomonas aeruginosa, read-out: MIC PΔ6
Method: as §1, §2, §3, §4, §5, §6

PA ATP synthase [6] = molecular target: T1, PA ATP synthase (Pseudomonas aeruginosa, UniProt Q9HT15); test: Inhibition of NADH-driven PA ATP synthesis activity in DK8/pASH20 inverted membrane vesicles (end-point luciferin/luciferase assay); assay type: biochemical; conditions: for IC50: PA ATP synthase IC50 (absolute), NADH-driven ATP synthesis, EC DK8/pASH20 inverted membrane vesicles
T1 construct: a whole operon plasmid that expresses; made in house; host or cells: Escherichia coli DK8 (K-12 strain lacking the unc operon) transformed with pASH20; used as inverted membrane vesicles, not purified

[7] = tested on: EC electron transport chain; test: Electron transport activity (ACMA fluorescence quenching) in E. coli DK8 pASH20 inverted membrane vesicles; assay type: biochemical, Escherichia coli
Method: (§7) Determination of electron transport activity. As previously described,11 inverted membrane vesicles from PA 9027 or E. coli DK8 pASH20 were added to HMK buffer containing 0.3 µg/mL 9-amino-6-chloro-2-methoxyacridine (ACMA) and 0-64 µg/mL test compound in DMSO. After measurement of baseline ACMA fluorescence for 60 s, redox-driven H+ pumping was initiated by addition of NADH to 0.8 mM, and fluorescence quenching was monitored for 120 s before addition of nigericin to 0.5 µg/mL. Relative activity is reported as the minimum fluorescence value normalized to the maximum fluorescence value following addition of nigericin.

[8] = tested on: PA electron transport chain; test: Electron transport activity (ACMA fluorescence quenching) in PA 9027 inverted membrane vesicles; assay type: biochemical, Pseudomonas aeruginosa; conditions: for PA ETC IC50: PA 9027 inverted membrane vesicles
Source text: The assay for PA ATP synthase activity in EC DK8/pASH20 membrane vesicles requires a functional EC ETC, so potent inhibition of the EC ETC by any compound would interfere with the determination of its IC50 for PA ATP synthase. […] Furthermore, potent inhibition of PA ETC could be an alternative mechanism of action for the antibacterial activity of the current series.
as §7

[9] = set-up: method as in earlier work; conditions: value of the C2 functional group; cited from earlier work
[10] = Solubility in the assay medium; assay type: physicochemical; conditions: assay medium of the ATP synthesis inhibition assay; read-out: Solubility in the assay medium (poor/insoluble above this concentration)
[11] = tested on: PΔ6 (efflux knockout strain of PA); set-up: method as in PMID 37922420; conditions: cited from earlier work
PA 9027 [12] = tested on: PA 9027; set-up: method as in PMID 37922420; conditions: cited from earlier work
[13] = tested on: PA electron transport chain; set-up: method as in PMID 37922420; conditions: previously determined; cited from earlier work
[14] = tested on: BAA 2108 (MDRPA clinical isolate); set-up: method as in PMID 37922420; conditions: cited from earlier work
[15] = tested on: BAA 2109 (MDRPA clinical isolate); set-up: method as in PMID 37922420; conditions: cited from earlier work
PA ATP synthase [16] = molecular target: T1, PA ATP synthase; set-up: method as in PMID 37922420; conditions: previously determined; cited from earlier work
[17] = tested on: BAA 2110 (MDRPA clinical isolate); set-up: method as in PMID 37922420; conditions: cited from earlier work
[18] = BAA2109, >85% reduction in growth at OD 590 nm, n = 3, read-out: MIC BAA 2109
[19] = BAA2108, >85% reduction in growth at OD 590 nm, n = 3, read-out: MIC BAA 2108
[20] = BAA2110, >85% reduction in growth at OD 590 nm, n = 3, read-out: MIC BAA 2110
[21] = BAA2109, read-out: MIC BAA 2109
[22] = BAA2108, read-out: MIC BAA 2108
[23] = >85% reduction in growth at OD 590 nm, n = 3
[24] = BAA2110, read-out: MIC BAA 2110

| Structure (SMILES) | MIC (PA 9027 [4]) [µg/mL] | MIC [5] [µg/mL] | IC50 (PA ATP synthase [6]) | % EC ETC Inhibition at 4 µg/mL [7] [%] | % PA ETC Inhibition at 32 µg/mL [8] [%] | PA ETC IC50 [8] | approximate pKa (NH+) of C2 side chain conjugate acid [9] | other results |
| --- | --- | --- | --- | --- | --- | --- | --- | --- |
| CNC(C)C1CCC(N)C(OC2C(N)CC(N)C(OC3OCC(C)(O)C(NC)C3O)C2O)O1 (stereo not shown) [gentamicin, reference compound] | 2 to 4 | > 4 | – | – | – | – | – | MIC [1, 18]: 2 µg/mL; MIC [2, 19]: 16 µg/mL; MIC [3, 20]: 4 to 8 µg/mL |
| Cn1cccc1CCNCc1cc2ccccc2nc1SCc1ccccc1 [Compound 18] | – | – | 12.9 µM and 10.3 µM | 5 | 62 | – | – | – |
| CSc1nc2ccccc2cc1CNCCC1CCN(C2CCCC2)CC1 [Compound 15] | – | – | 54.7 µM | 6 | – | 8.3 µg/mL | – | – |
| c1ccc(CSc2nc3ccccc3cc2CNCCC2CCN(C3CCCC3)CC2)cc1 [Compound 16] | > 128 | 8 | 2.18 µM | 9 | – | 14 [14] μg/mL | > 6 | MIC [1, 21]: 64 µg/mL; MIC [2, 22]: 32 µg/mL; MIC BAA 2110 [3, 23]: inactive; MIC [3, 24]: > 128 µg/mL |
| CN(C)CCCCCNCc1cc2ccccc2nc1SCc1ccccc1 [Compound 10] | > 128 | 64 | ~5.08 µM and 5.08 µM | 14 | – | 57 µg/mL | above 6 | MIC [1, 18]: 128 µg/mL; MIC [2, 19]: 64 µg/mL; MIC [3, 20]: 64 µg/mL |
| CN(C)c1ccc(CNCc2cc3ccccc3nc2SCc2ccccc2)cc1 [Compound 12] | – | – | – | – | – | – | – | PA ATP synthase inhibition (in words) (PA ATP synthase [6]; <4 μg/mL, IC50 could not be determined): potent PA ATP synthase inhibition at low concentrations; EC ETC inhibition (in words) [7]: displayed some PA and EC ETC; PA ETC inhibition (in words) [8]: displayed some PA and EC ETC; solubility [10]: ≤ 16 µg/mL |
| CSc1nc2ccccc2cc1CNCc1ccc(N(C)C)cc1 [Compound 11] | – | – | 14.8 µM | 4 | – | – | ∼5 | % PA ETC Inhibition at 4 µg/mL ([8]; 4 µg/mL): 20% |
| CSc1nc2ccccc2cc1CNCCc1nc(C)cc(C)n1 [Compound 19] | – | – | 198 µM | 1.3 | – | – | ∼1 | % PA ETC Inhibition ([8]; concentration not given): 20% |
| CSc1nc2ccccc2cc1CNCCCCN(C)C [Compound 7] | – | – | 224 µM | 6 | 72 | – | – | – |
| CN(C)CCCNCc1cc2ccccc2nc1SCc1ccccc1 [Compound 6] | > 128 | 16 | 16.4 µM | 3 | – | 44 µg/mL | above 6 | MIC [1, 18]: 64 µg/mL; MIC [2, 19]: 64 µg/mL; MIC [3, 20]: 32 µg/mL |
| CSc1nc2ccccc2cc1CNCCc1cccn1C [Compound 17] | – | – | 16.1 µM | 0 | 65 | – | ∼0.5 | – |
| CCN1CCC(CCNCc2cc3ccccc3nc2SCc2ccccc2)CC1 [Compound 14] | > 128 | 16 | 2.38 µM | 16 | – | 26 [26] μg/mL | above 6 | MIC [1, 21]: 64 µg/mL; MIC [2, 22]: 32 µg/mL; MIC [3, 24]: 16 µg/mL |
| O=C(N[C@H](CO)[C@H](O)c1ccc([N+](=O)[O-])cc1)C(Cl)Cl [chloramphenicol, reference compound] | – | 4 | – | – | – | – | – | MIC [1, 18]: 128 µg/mL; MIC [2, 19]: 32 µg/mL; MIC [3, 20]: 128 µg/mL; MIC (PA 9027 [4]; [23]): 128 µg/mL |
| Cc1cc(C)nc(CCNCc2cc3ccccc3nc2SCc2ccccc2)n1 [Compound 20] | – | – | 7.24 µM | 17 | 67 | – | – | – |
| CSc1nc2ccccc2cc1CNCCc1cnc[nH]1 [Compound 21] | – | – | 53.6 µM | 5 | – | 39 µg/mL | ∼7 | – |
| CSc1nc2ccccc2cc1CNCCCN(C)C [Compound 5] | – | – | 149 µM | 9 | 54 | – | – | – |
| c1ccc(CSc2nc3ccccc3cc2CNCCc2cnc[nH]2)cc1 [Compound 22] | > 128 | 16 | ~5.34 µM and 5.34 µM | – | – | 15 µg/mL | – | EC ETC IC50 ([7]; E. coli DK8 pASH20 inverted membrane vesicles): 14 µg/mL; MIC BAA 2109 [1, 23]: displayed antibacterial activity; MIC [1, 18]: 64 µg/mL; MIC BAA 2108 [2, 23]: displayed antibacterial activity; MIC [2, 19]: 32 µg/mL; MIC [3, 20]: > 128 µg/mL |
| CN(C)CCCCNCc1cc2ccccc2nc1SCc1ccccc1 [Compound 8] | > 128 | 16 | 2.63 µM | 0 | – | 26 [26] μg/mL | > 6 | MIC [1, 18]: 64 µg/mL; MIC [2, 19]: 64 µg/mL; MIC [3, 20]: 32 µg/mL |
| CCN1CCC(CCNCc2cc3ccccc3nc2SC)CC1 [Compound 13] | – | – | 114 µM | 20 | 74 | – | – | – |
| CSc1nc2ccccc2cc1CNCc1ccc(CN(C)C)cc1 [Compound 1] | – | – | – | – | – | – | – | MIC PΔ6 [11]: 64 to 128 µg/mL; MIC PA 9027 (PA 9027 [12]): >256 µg/mL; PA ETC IC50 [13]: 29 µg/mL; MIC BAA 2108 [14]: 128 to 256 µg/mL; MIC BAA 2109 [15]: 256 µg/mL (≈ 728 µM); PA ATP synthase IC50 (PA ATP synthase [16]): 30 µg/mL; MIC BAA 2110 [17]: >256 µg/mL |
| CN(C)Cc1ccc(CNCc2cc3ccccc3nc2SCc2ccccc2)cc1 [Compound 2] | – | – | – | – | – | – | – | MIC PΔ6 [11]: 16 µg/mL (≈ 37.4 µM); MIC PA 9027 (PA 9027 [12]): >128 µg/mL; PA ETC IC50 [13]: 27 µg/mL; MIC BAA 2108 [14]: 64 µg/mL (≈ 150 µM); MIC BAA 2109 [15]: >128 µg/mL; IC50 (PA ATP synthase [16]): ~4.68 µM; MIC BAA 2110 [17]: >128 µg/mL |
| CSc1nc2ccccc2cc1CNCCCCCN(C)C [Compound 9] | – | – | 59.8 µM | 22 | 74 | – | – | – |

— paper PMC10789121, “Amine Basicity of Quinoline ATP Synthase Inhibitors Drives Antibacterial Activity against Pseudomonas aeruginosa” (ACS Medicinal Chemistry Letters, 2023)
